Among the data in US12202844B2, “MAP4K1 inhibitors” (Blueprint Medicines Corporation, priority 2021, dated 2025) are IC50 values, retold here.

By IC50 is commonly meant the concentration that gives 50% inhibition.

In the test the target is T1, MAP4K1 (HPK1) (Homo sapiens, UniProt Q92918).
T1 construct: purchased Invitrogen
T1 sequence (Q92918 whole entry): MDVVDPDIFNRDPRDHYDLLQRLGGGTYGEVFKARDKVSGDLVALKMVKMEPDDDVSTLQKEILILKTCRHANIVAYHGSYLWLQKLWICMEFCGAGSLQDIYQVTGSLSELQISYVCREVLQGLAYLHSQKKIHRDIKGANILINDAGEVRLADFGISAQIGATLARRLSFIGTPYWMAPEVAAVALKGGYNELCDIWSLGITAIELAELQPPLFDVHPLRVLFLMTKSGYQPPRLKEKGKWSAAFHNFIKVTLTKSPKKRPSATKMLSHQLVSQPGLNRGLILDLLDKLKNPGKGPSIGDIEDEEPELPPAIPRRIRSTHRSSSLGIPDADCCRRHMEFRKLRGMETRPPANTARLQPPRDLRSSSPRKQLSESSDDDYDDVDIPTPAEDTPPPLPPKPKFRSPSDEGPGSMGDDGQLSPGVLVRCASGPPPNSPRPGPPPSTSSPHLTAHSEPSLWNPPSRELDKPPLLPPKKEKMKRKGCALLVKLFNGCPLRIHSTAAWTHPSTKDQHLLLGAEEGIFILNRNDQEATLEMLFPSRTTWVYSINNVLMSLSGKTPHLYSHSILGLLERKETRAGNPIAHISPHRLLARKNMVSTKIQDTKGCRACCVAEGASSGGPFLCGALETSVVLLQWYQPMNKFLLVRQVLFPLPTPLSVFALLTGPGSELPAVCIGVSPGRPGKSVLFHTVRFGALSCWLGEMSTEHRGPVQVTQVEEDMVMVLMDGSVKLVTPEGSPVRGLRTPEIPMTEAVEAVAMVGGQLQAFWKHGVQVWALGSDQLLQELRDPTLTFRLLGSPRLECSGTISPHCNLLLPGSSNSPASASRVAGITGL
Nature of the test: Inhibition of MAP4K1 biochemical enzymatic activity (EZReader 2 electrophoretic mobility shift). The settings on record: HPK1 (Invitrogen), S6K2tide 1.5 μM, 120 min; ATP 26 μM or 1000 μM (not given). An excerpt: MAP4K1 (HPK1) and relevant off-target enzymatic activity was monitored using the Perkin Elmer electrophoretic mobility shift technology platform—the EZReader 2. […] Within the linear, steady-state phase of the kinase enzymatic reaction, the mixed pool of phosphorylated (product) and non-phosphorylated (substrate) peptides was passed through the microfluidic system of the PerkinElmer EZ Reader 2, under an applied electric potential difference. The presence of the phosphate group on the product peptide provided a difference in mass and charge between that of the substrate peptide, resulting in a separation of the substrate and product pools in the sample (Perrin et al. 2010). As the product and substrate peptide mixture passes the lasers within the instrument, these pools are detected (λex=488 nm, λem=568 nm) and resolved as separate peaks. The ratio between these peaks reflects the activity of the compound at that concentration, in that well, under those conditions.
Inhibitors were dissolved in 100% DMSO at a stock concentration of 10 mM. A 100×, 10-point, 4-fold serial dilution of each inhibitor was created in 100% DMSO either manually or on a Hamilton STAR liquid handler, starting at a relevant concentration, usually 1 mM. A volume of 0.130 μL of each concentration was transferred to the relevant wells of a 384-well plate (Greiner 781 201) in duplicate using a TTPLabtech Mosquito nano-litre dispenser. Using a Multidrop Combi, the remaining constituents of the kinase reaction were added to the 130 nL of dosed compound as follows (see table below for final reaction details):
Enzyme activity assays at the ^APPKM for ATP or 1 mM ATP: In each well of a 384-well plate, 0.1-15 nM of untreated enzyme was incubated in a total of 13 μL of buffer (100 mM HEPES pH 7.5, 0.015% Brij 35, 10 mM MgCl2, 1 mM DTT) with 1.5 μM fluorescent peptid and 20-1000 μM ATP, at 25° C., for 60-180 minutes in the presence or absence of a dosed concentration series of compound (1% DMSO final concentration). The kinase reactions were stopped by the addition of 70 μl of Stop buffer (100 mM HEPES pH 7.5, 0.015% Brij 35, 35 mM EDTA and 0.2% of Coating Reagent 3 (Caliper Lifesciences)). The plates were read on a Caliper EZReader 2 as described above.
A general note: In EMSA bound probe runs differently from free probe, usually more slowly.
As for `C[C@@H]1COC(=O)c2ccc(Nc3cc4c(C(C)(C)N)cnc(O[C@H]5C[C@@H](S(C)(=O)=O)C5)c4cn3)nc21` (single isomer, unassigned) [Compound 5], the half-maximal inhibitory concentration (IC50) amounted to 1770 pM. In the case of `CC[C@@](C)(N)c1cnc(O[C@H]2C[C@@H](S(C)(=O)=O)C2)c2cnc(Nc3ccc4c(n3)[C@H](C)COC4=O)cc12` (single isomer, unassigned) [Compound 8] it was 310 pM; in that of `CC[C@@](C)(N)c1cnc(O[C@H]2C[C@@H](S(C)(=O)=O)C2)c2cnc(Nc3ccc4c(n3)[C@H](C)COC4=O)cc12` (single isomer, unassigned) [Compound 9], 920 pM. In the case of `C[C@@H]1OC(=O)c2ccc(Nc3cc4c(C(C)(C)N)cnc(O[C@@H](C)CCS(C)(=O)=O)c4cn3)nc2[C@H]1C` (single isomer, unassigned) [Compound 19] it was 900 pM. As for `CC[C@@](C)(N)c1cnc(OCCCS(C)(=O)=O)c2cnc(Nc3ccc4c(n3)[C@H](C)[C@H](C)OC4=O)cc12` (single isomer, unassigned) [Compound 21], the IC50 came out at 180 pM. Turning to `C[C@H]1OC(=O)c2ccc(Nc3cc4c(C(C)(C)N)cnc(O[C@H]5C[C@@H](S(C)(=O)=O)C5)c4cn3)nc2C12CC2` (single isomer, unassigned) [Compound 24], the IC50 was determined as 150 pM. `C[C@@H]1COC(=O)c2ccc(Nc3cc4c(C(C)(C)N)cnc(O[C@H]5C[C@@H](S(=O)(=O)C6CC6)C5)c4cn3)nc21` (single isomer, unassigned) [Compound 25]: the IC50 was 1530 pM. In the case of `C[C@@H]1[C@@H](Oc2ncc(C(C)(C)N)c3cc(Nc4ccc5c(n4)[C@@H](C)[C@H](C)OC5=O)ncc23)C[C@H]1S(C)(=O)=O` (single isomer, unassigned) [Compound 30] it was 790 pM; in that of `C[C@@H]1[C@@H](Oc2ncc(C(C)(C)N)c3cc(Nc4ccc5c(n4)[C@@H](C)[C@H](C)OC5=O)ncc23)C[C@H]1S(C)(=O)=O` (single isomer, unassigned) [Compound 31], 200 pM.

Turning to `C[C@@H]1OC(=O)c2ccc(Nc3cc4c(C(C)(C)N)cnc(O[C@@H]5CC[C@@H](S(C)(=O)=O)C5)c4cn3)nc2[C@H]1C` (single isomer, unassigned) [Compound 34], the IC50 is 560 pM. In the case of `C[C@@H]1OC(=O)c2ccc(Nc3cc4c(C(C)(C)N)cnc(O[C@@H]5CC[C@@H](S(C)(=O)=O)C5)c4cn3)nc2[C@H]1C` (single isomer, unassigned) [Compound 35] it was 480 pM; in that of `C[C@@H]1c2nc(Nc3cc4c(C(C)(C)N)cnc(OC[C@H]5CCS(=O)(=O)C5)c4cn3)ccc2C(=O)OC1(C)C` (single isomer, unassigned) [Compound 36], 540 pM. In the case of `C[C@@H]1c2nc(Nc3cc4c(C(C)(C)N)cnc(OC[C@H]5CCS(=O)(=O)C5)c4cn3)ccc2C(=O)OC1(C)C` (single isomer, unassigned) [Compound 37] it was 440 pM.

`C[C@@H]1OC(=O)c2ccc(Nc3cc4c(C(C)(C)N)cnc(O[C@@H]5CC[C@H](S(C)(=O)=O)C5)c4cn3)nc2[C@H]1C` (single isomer, unassigned) [Compound 40]: the IC50 came out at 860 pM.

With `C[C@@H]1OC(=O)c2ccc(Nc3cc4c(C(C)(C)N)cnc(O[C@@H]5CC[C@H](S(C)(=O)=O)C5)c4cn3)nc2[C@H]1C` (single isomer, unassigned) [Compound 41], the IC50 came to 680 pM.

As to `CC[C@@](C)(N)c1cnc(OCCCS(C)(=O)=O)c2cnc(Nc3ccc4c(n3)C3(CC3)[C@H](C)OC4=O)cc12` (single isomer, unassigned) [Compound 43], the IC50 came to 120 pM. Take `C[C@H](CCS(C)(=O)=O)Oc1ccc(C(C)(C)N)c2cc(Nc3ccc4c(n3)[C@@H](C)C(C)(C)OC4=O)ncc12` (single isomer, unassigned) [Compound 45]: the IC50 worked out at 200 pM.

As to `C[C@H](CCS(C)(=O)=O)Oc1ccc(C(C)(C)N)c2cc(Nc3ccc4c(n3)[C@@H](C)C(C)(C)OC4=O)ncc12` (single isomer, unassigned) [Compound 46], the IC50 amounted to 710 pM. In the case of `C[C@H](CCS(C)(=O)=O)Oc1ncc(C(C)(C)N)c2cc(Nc3ccc4c(n3)[C@@H](C)C(C)(C)OC4=O)ncc12` (single isomer, unassigned) [Compound 54] it was 820 pM; in that of `CC[C@@](C)(N)c1cnc(OCCCS(C)(=O)=O)c2cnc(Nc3ccc4c(n3)C(C)(C)[C@H](C)OC4=O)cc12` (single isomer, unassigned) [Compound 56], 210 pM. In the case of `CC[C@@](C)(N)c1cnc(O[C@H]2C[C@@H](S(C)(=O)=O)C2)c2cnc(Nc3ccc4c(n3)C3(CC3)[C@@H](C)OC4=O)cc12` (single isomer, unassigned) [Compound 58] it was 100 pM; in that of `C[C@H]1[C@H](Oc2ncc(C(C)(C)N)c3cc(Nc4ccc5c(n4)[C@@H](C)C(C)(C)OC5=O)ncc23)C[C@@H]1S(C)(=O)=O` (single isomer, unassigned) [Compound 68], 510 pM; in that of `C[C@@H]1[C@H](S(C)(=O)=O)C[C@H]1Oc1ncc(C(C)(C)N)c2cc(Nc3ccc4c(n3)[C@@H](C)C(C)(C)OC4=O)ncc12` (single isomer, unassigned) [Compound 70], 230 pM. In the case of `C[C@@H]1[C@H](S(C)(=O)=O)C[C@H]1Oc1ncc(C(C)(C)N)c2cc(Nc3ccc4c(n3)[C@@H](C)C(C)(C)OC4=O)ncc12` (single isomer, unassigned) [Compound 71], the IC50 was determined as 280 pM. In the case of `CC[C@@H](CCS(C)(=O)=O)Oc1ncc([C@](C)(N)CC)c2cc(Nc3ccc4c(n3)[C@@H](C)[C@H](C)OC4=O)ncc12` (single isomer, unassigned) [Compound 83] it was 920 pM; in that of `CC[C@@H](CCS(C)(=O)=O)Oc1ncc([C@](C)(N)CC)c2cc(Nc3ccc4c(n3)[C@@H](C)[C@H](C)OC4=O)ncc12` (single isomer, unassigned) [Compound 84], 740 pM; in that of `CC[C@@](C)(N)c1cnc(O[C@H](C)CCS(C)(=O)=O)c2cnc(Nc3ccc4c(n3)C(C)(C)[C@H](C)OC4=O)cc12` (single isomer, unassigned) [Compound 96], 770 pM. In the case of `CC[C@@](C)(N)c1cnc(O[C@@H](C)CCS(C)(=O)=O)c2cnc(Nc3ccc4c(n3)C(C)(C)[C@H](C)OC4=O)cc12` (single isomer, unassigned) [Compound 97] it was 2110 pM. In the case of `CCS(=O)(=O)[C@H]1C[C@@H](Oc2ncc([C@H](N)C3CC3)c3cc(Nc4ccc5c(n4)[C@@H](C)C(C)(C)OC5=O)ncc23)C1` (single isomer, unassigned) [Compound 101] it was 480 pM; in that of `CC[C@@](C)(N)c1cnc(O[C@@H](C)CCS(=O)(=O)C2CC2)c2cnc(Nc3ccc4c(n3)[C@@H](C)[C@H](C)OC4=O)cc12` (single isomer, unassigned) [Compound 106], 220 pM; in that of `CC[C@@](C)(N)c1cnc(O[C@@H](C)CCS(=O)(=O)C2CC2)c2cnc(Nc3ccc4c(n3)[C@@H](C)[C@H](C)OC4=O)cc12` (single isomer, unassigned) [Compound 107], 260 pM. As to `C[C@H](C[C@@H](C)S(C)(=O)=O)Oc1ncc([C@@](C)(N)C2CC2)c2cc(Nc3ccc4c(n3)CC(C)(C)OC4=O)ncc12` (single isomer, unassigned) [Compound 108], the IC50 came out at 220 pM. In the case of `C[C@H](C[C@@H](C)S(C)(=O)=O)Oc1ncc([C@@](C)(N)C2CC2)c2cc(Nc3ccc4c(n3)[C@@H](C)[C@H](C)OC4=O)ncc12` (single isomer, unassigned) [Compound 109] it was 150 pM; in that of `CCS(=O)(=O)C[C@H]1C[C@H](Oc2ncc(C(C)(C)N)c3cc(Nc4ccc5c(n4)[C@@H](C)C(C)(C)OC5=O)ncc23)C1` (single isomer, unassigned) [Compound 111], 120 pM; in that of `CCC[C@@](C)(N)c1cnc(O[C@H](C)C[C@@H](C)S(C)(=O)=O)c2cnc(Nc3ccc4c(n3)CC(C)(C)OC4=O)cc12` (single isomer, unassigned) [Compound 124], 260 pM. In the case of `CCC[C@@](C)(N)c1cnc(O[C@H](C)C[C@@H](C)S(C)(=O)=O)c2cnc(Nc3ccc4c(n3)[C@@H](C)[C@H](C)OC4=O)cc12` (single isomer, unassigned) [Compound 125] it was 180 pM; in that of `CC[C@@](C)(N)c1cnc(O[C@H](C)C[C@@H](C)S(C)(=O)=O)c2cnc(Nc3ccc4c(n3)C(C)(C)[C@H](C)OC4=O)cc12` (single isomer, unassigned) [Compound 130], 220 pM.
